The values that follow come from PubChem BioAssay (NCI).

Test systems include U251 CNS; NCI/ADR-RES ovarian; ACHN renal; SK-MEL-28 melanoma; MOLT-4 leukemia; KM12 colon; SK-MEL-5 melanoma; SF-295 CNS; RPMI-8226 leukemia; HL-60(TB) leukemia.
Holding throughout (experiment): NCI tumour cell line growth inhibition, 48 h

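Results reflect a 48-hour exposure of cells in 96-well plates to compound at five concentrations. GI50 = concentration required for 50% inhibition of growth. TGI: concentration producing complete growth inhibition.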 Where a SMILES comes first, the peptide text is derived from it. [ ]: non-standard residue; d: D form. The star is where a group is joined. NMeF = CN[C@@H](Cc1ccccc1)C(=O)O; NMeV = CN[C@H](C(=O)O)C(C)C; Boc = CC(C)(C)OC(=O)*; OBn = c1ccc(CO*)cc1

On to `COc1ccc(CCN2CCC(Nc3nc4ccccc4n3Cc3ccc(F)cc3)CC2)cc1`, for which the GI50 is 1.47 µM in the assay on U251 CNS; 1.59 µM with NCI/ADR-RES ovarian; 1.55 µM in the assay with ACHN renal; 1.61 µM in the assay on SK-MEL-28 melanoma; 1.67 µM in the assay on MOLT-4 leukemia; 1.71 µM in the assay with KM12 colon. Besides, the GI50 in the assay with SK-MEL-5 melanoma is 1.32 µM; with SF-295 CNS it was 1.65 µM; in the assay with RPMI-8226 leukemia, 1.78 µM; in the assay with HL-60(TB) leukemia, 1.96 µM. In addition, the TGI in the assay on U251 CNS came to 2.89 µM; with NCI/ADR-RES ovarian, 3.32 µM; in the assay on ACHN renal, 2.93 µM; in the assay on SK-MEL-28 melanoma, 3.03 µM; in the assay on MOLT-4 leukemia, 4.71 µM; with KM12 colon, 3.13 µM. For the same compound, the TGI came out at 2.6 µM in the assay on SK-MEL-5 melanoma, 3.26 µM in the assay with SF-295 CNS, 4.73 µM in the assay with RPMI-8226 leukemia and 3.81 µM with HL-60(TB) leukemia.
With `Cn1ccnc1C(=O)/C=C/c1ccc(CC(=O)Nc2ccc(F)cc2)cc1`, the GI50 with U251 CNS is 1.4 µM; with NCI/ADR-RES ovarian, 4.24 µM; in the assay with ACHN renal, 5.74 µM; with SK-MEL-28 melanoma, 4.47 µM; with MOLT-4 leukemia it was 2.32 µM; in the assay on KM12 colon, 1.62 µM. Further, the GI50 with SK-MEL-5 melanoma was 4.45 µM; in the assay with SF-295 CNS it was 4.55 µM; in the assay with RPMI-8226 leukemia it was 1.02 µM; in the assay on HL-60(TB) leukemia, 1.6 µM. The TGI in the assay on U251 CNS is 4.81 µM; with NCI/ADR-RES ovarian it was greater than 25 µM; in the assay on ACHN renal, greater than 25 µM; in the assay with SK-MEL-28 melanoma it was 9.95 µM; in the assay on MOLT-4 leukemia, 18.1 µM; in the assay with KM12 colon it was 5.52 µM. The TGI with SK-MEL-5 melanoma was found to be 8.09 µM; with SF-295 CNS, 19.1 µM; in the assay with RPMI-8226 leukemia it was 5.44 µM; with HL-60(TB) leukemia, 12.4 µM.
For `OCC1OC2OC3C(CO)OC(OC4C(CO)OC(OC5C(CO)OC(OC6C(CO)OC(OC7C(CO)OC(OC1C(O)C2O)C(O)C7O)C(O)C6O)C(O)C5O)C(O)C4O)C(O)C3O` (stereo not given) (tested in a mixture with another compound), the TGI in the assay with U251 CNS was greater than 100 µM; in the assay on NCI/ADR-RES ovarian, greater than 96.1 µM; with ACHN renal, greater than 100 µM; with SK-MEL-28 melanoma, greater than 100 µM; with MOLT-4 leukemia, greater than 100 µM; in the assay with KM12 colon, greater than 100 µM. Further, the TGI in the assay with SK-MEL-5 melanoma is 97.8 µM; in the assay on SF-295 CNS, greater than 100 µM; with RPMI-8226 leukemia, greater than 100 µM; in the assay with HL-60(TB) leukemia it was 55 µM.
Turning to `CC1(C)N=C(N)N=C(N)N1c1cccc(CCCCOc2ccccc2)c1`, the GI50 is 0.0488 µM in the assay on U251 CNS; greater than 100 µM with NCI/ADR-RES ovarian; 3.85 µM in the assay on ACHN renal; 0.521 µM in the assay with SK-MEL-28 melanoma; 0.0629 µM with MOLT-4 leukemia; 0.0398 µM in the assay with KM12 colon. For the same compound, the GI50 with SK-MEL-5 melanoma was 0.423 µM; in the assay on SF-295 CNS, 0.34 µM; in the assay with RPMI-8226 leukemia it was 0.0601 µM; in the assay on HL-60(TB) leukemia, 0.0239 µM. The TGI is 55.7 µM with U251 CNS; greater than 100 µM in the assay with NCI/ADR-RES ovarian; greater than 100 µM in the assay on ACHN renal; 20.6 µM with SK-MEL-28 melanoma; 36.3 µM with MOLT-4 leukemia; 25 µM with KM12 colon. Also, the TGI in the assay with SK-MEL-5 melanoma is 5.29 µM; with SF-295 CNS, greater than 68.4 µM; in the assay with RPMI-8226 leukemia, 13.6 µM; with HL-60(TB) leukemia, 9.6 µM.
For `O=C(Cc1ccccc1)NC(c1ccc(Cl)cc1)c1c(O)ccc2ccccc12` (stereo not given), the GI50 with U251 CNS was 2.55 µM; in the assay on NCI/ADR-RES ovarian it was 3.41 µM; in the assay with ACHN renal, 2.55 µM; in the assay on SK-MEL-28 melanoma it was 3.16 µM; with MOLT-4 leukemia, 3.51 µM; in the assay on KM12 colon, 3.62 µM. Moreover, the GI50 was 1.73 µM with SK-MEL-5 melanoma, 2.35 µM with SF-295 CNS, 2.84 µM in the assay with RPMI-8226 leukemia and 2.43 µM in the assay with HL-60(TB) leukemia. The TGI amounted to 6.94 µM with U251 CNS; 11.5 µM in the assay on NCI/ADR-RES ovarian; 6.9 µM with ACHN renal; 11.6 µM in the assay on SK-MEL-28 melanoma; 20.3 µM in the assay with MOLT-4 leukemia; 11.7 µM in the assay on KM12 colon. The TGI in the assay on SK-MEL-5 melanoma was determined as 3.2 µM; in the assay with SF-295 CNS, 7.5 µM; with RPMI-8226 leukemia, 8.36 µM; with HL-60(TB) leukemia, 6.39 µM.
For the compound `O=S(=O)(CCNCc1ccc(-c2ccc3ncnc(Nc4ccc(OCc5cccc(F)c5)c(Cl)c4)c3c2)o1)c1ccccc1`, the GI50 with U251 CNS was greater than 25 µM; with NCI/ADR-RES ovarian it was greater than 25 µM; in the assay with ACHN renal it was 18.9 µM; in the assay on SK-MEL-28 melanoma, greater than 25 µM; with MOLT-4 leukemia, greater than 25 µM; in the assay on KM12 colon, greater than 25 µM. Besides, the GI50 was greater than 20.5 µM in the assay on SK-MEL-5 melanoma, greater than 25 µM in the assay on SF-295 CNS, greater than 25 µM in the assay with RPMI-8226 leukemia and greater than 25 µM in the assay on HL-60(TB) leukemia. Besides, the TGI in the assay on U251 CNS, in the assay on NCI/ADR-RES ovarian, in the assay with ACHN renal, in the assay with SK-MEL-28 melanoma, with MOLT-4 leukemia and in the assay on KM12 colon was greater than 25 µM throughout. In addition, the TGI in the assay on SK-MEL-5 melanoma, in the assay with SF-295 CNS, with RPMI-8226 leukemia and with HL-60(TB) leukemia was greater than 25 µM in each case.
Turning to `Brc1ccccc1C=NC12CC3CC(CC(C3)C1)C2`, the TGI in the assay with U251 CNS is greater than 100 µM; with NCI/ADR-RES ovarian, greater than 100 µM; in the assay with ACHN renal, greater than 100 µM; in the assay with SK-MEL-28 melanoma, greater than 100 µM; in the assay with MOLT-4 leukemia it was greater than 91.1 µM; in the assay with KM12 colon, greater than 100 µM. The TGI is greater than 100 µM with SK-MEL-5 melanoma, greater than 100 µM in the assay on SF-295 CNS, greater than 100 µM with RPMI-8226 leukemia and 4.37 µM in the assay with HL-60(TB) leukemia.
Regarding H-HIIKKIRTWYRKAWHVLGKV-NH2, the GI50 is 7.17 µM in the assay on U251 CNS; 5.85 µM in the assay on NCI/ADR-RES ovarian; 13.2 µM in the assay with ACHN renal; 2.61 µM in the assay on SK-MEL-28 melanoma; 14.2 µM in the assay with MOLT-4 leukemia; 2.49 µM in the assay on KM12 colon. Moreover, the GI50 in the assay with SK-MEL-5 melanoma was 3.94 µM; with SF-295 CNS it was 4.8 µM; in the assay on RPMI-8226 leukemia, 8.62 µM; with HL-60(TB) leukemia, 4.29 µM. For the same compound, the TGI in the assay with U251 CNS was greater than 100 µM; in the assay on NCI/ADR-RES ovarian it was 28.5 µM; in the assay on ACHN renal, 28.6 µM; in the assay on SK-MEL-28 melanoma it was 7.66 µM; with MOLT-4 leukemia it was 57.2 µM; in the assay with KM12 colon, 6.58 µM. Further, the TGI with SK-MEL-5 melanoma came to 19.5 µM; with SF-295 CNS, 22.8 µM; in the assay with RPMI-8226 leukemia, 45 µM; in the assay with HL-60(TB) leukemia, 23.3 µM.
Regarding `CC(C)[C@@H](C(=O)N1CCC[C@H]1C(=O)OCc1ccccc1)N(C)C(=O)[C@H](C(C)C)N(C)C(=O)[C@H](Cc1ccccc1)N(C)C(=O)[C@H](NC(=O)OC(C)(C)C)C(C)C` (Boc-[dV][NMeF][NMeV][NMeV]P-OBn), the TGI in the assay on U251 CNS was greater than 100 µM; with NCI/ADR-RES ovarian it was greater than 50 µM; with ACHN renal, greater than 100 µM; in the assay with SK-MEL-28 melanoma it was greater than 100 µM; in the assay with MOLT-4 leukemia, greater than 100 µM; in the assay on KM12 colon it was greater than 100 µM. Moreover, the TGI in the assay with SK-MEL-5 melanoma, in the assay on SF-295 CNS, in the assay on RPMI-8226 leukemia and in the assay on HL-60(TB) leukemia was greater than 100 µM throughout. Further, the GI50 is 3.68 µM in the assay on MOLT-4 leukemia; greater than 100 µM in the assay on KM12 colon; greater than 100 µM in the assay on SF-295 CNS; 4.6 µM with RPMI-8226 leukemia; 21.9 µM in the assay on HL-60(TB) leukemia.
For the compound `CC(=O)OC1Oc2cc(C)c(C)cc2-c2oc(=O)c(-c3ccc(F)cc3)cc21` (stereo not given), the GI50 was 4.06 µM with U251 CNS; 2.86 µM in the assay on NCI/ADR-RES ovarian; 11.9 µM in the assay with ACHN renal; 6.89 µM in the assay on SK-MEL-28 melanoma; 3.1 µM in the assay on MOLT-4 leukemia; 3.55 µM in the assay on KM12 colon. Further, the GI50 is 3.35 µM in the assay on SK-MEL-5 melanoma, 3.92 µM with SF-295 CNS, 2.52 µM in the assay with RPMI-8226 leukemia and 3.71 µM with HL-60(TB) leukemia. Further, the TGI in the assay with U251 CNS is 45.6 µM; with NCI/ADR-RES ovarian, 9.34 µM; in the assay with ACHN renal, greater than 100 µM; in the assay on SK-MEL-28 melanoma, 45.7 µM; with MOLT-4 leukemia, 12.1 µM; with KM12 colon, 22.4 µM. Further, the TGI in the assay on SK-MEL-5 melanoma is 17.2 µM; in the assay on SF-295 CNS it was greater than 100 µM; with RPMI-8226 leukemia, 9.04 µM; in the assay on HL-60(TB) leukemia, greater than 100 µM.
`Cc1[nH]nc2ccc3nc(-c4ccc5[nH]ncc5c4)c4c(c3c12)CCCC4`: the GI50 with U251 CNS was 0.92 µM; in the assay with NCI/ADR-RES ovarian, 2.4 µM; with ACHN renal, 0.367 µM; with SK-MEL-28 melanoma it was 2.09 µM; in the assay on MOLT-4 leukemia, 1.92 µM; in the assay on KM12 colon, 0.63 µM. Further, the GI50 in the assay on SK-MEL-5 melanoma is 1.92 µM; in the assay with SF-295 CNS, 2.74 µM; in the assay with RPMI-8226 leukemia it was 1.51 µM; in the assay on HL-60(TB) leukemia, 1.73 µM. Further, the TGI in the assay on U251 CNS was found to be 13.9 µM; in the assay on NCI/ADR-RES ovarian, 15.8 µM; in the assay with ACHN renal, 12.9 µM; in the assay with SK-MEL-28 melanoma, 9.54 µM; in the assay with MOLT-4 leukemia, 10.1 µM; with KM12 colon it was 13.6 µM. Also, the TGI in the assay on SK-MEL-5 melanoma was determined as 5 µM; with SF-295 CNS, 10.5 µM; with RPMI-8226 leukemia, 6.65 µM; with HL-60(TB) leukemia it was 4.32 µM.
